Where two headings read alike, the source gives them in different places.
Assays:
HiBit-BRG1 = biological target: T1, HiBit-BRG1 (Homo sapiens, UniProt P51532); assay: HiBit-BRG1 cell-based degradation assay (Nano-Glo HiBiT Lytic Detection)
T1 construct: expressed in transfected cells
Method: (§1) Procedure: A stable HeLa cell line expressing HiBiT-BRM was generated. On day 0, 5000 cells were seeded in 40 μL of media into each well of 384-well cell culture plates. […] Subsequently plates were incubated for 24 h in a standard tissue culture incubator and equilibrated at room temperature for 15 minutes. Nano-Glo HiBiT Lytic Detection System (Promega N3050) reagent was freshly prepared and 20 ul was added to each well. Upon addition of this LgBit-containing reagent, the HiBiT and LgBiT proteins associate to form the luminescent NanoBiT luciferase. The plates were shaken for 10 minutes at room temperature and the bioluminescence read using an EnVision plate reader (PerkinElmer).
For measurement of BRG1 degradation, a stable HeLa cell line expressing HiBit-BRG1 and LgBit was generated. The same protocol as above was then followed.
(§2) The degradation % was calculated using the following formula: % degradation=100%−100%×(LumSample−LumLC)/(LumHC−LumLC). DMSO treated cells are employed as High Control (HC) and 2 μM of a known BRM/BRG1 degrader standard treated cells are employed as Low Control (LC).

HiBiT-BRM = biological target: T2, HiBiT-BRM (Homo sapiens, UniProt P51531); assay: HiBiT-BRM cell-based degradation assay (Nano-Glo HiBiT Lytic Detection)
T2 construct: expressed in transfected cells
Method: as §1, §2

[1] = HeLa cells expressing HiBit-BRG1 and LgBit, 24 h; read-out: BRG1 HiBit Degradation IC50
[2] = HeLa cells expressing HiBit-BRG1 and LgBit, 24 h; read-out: BRG1 HiBit Degradation Maximum (%)
[3] = HeLa cells expressing HiBiT-BRM, 24 h
[4] = HeLa cells expressing HiBiT-BRM, 24 h; read-out: BRM HiBit Degradation IC50

T1 sequence (P51532 whole entry): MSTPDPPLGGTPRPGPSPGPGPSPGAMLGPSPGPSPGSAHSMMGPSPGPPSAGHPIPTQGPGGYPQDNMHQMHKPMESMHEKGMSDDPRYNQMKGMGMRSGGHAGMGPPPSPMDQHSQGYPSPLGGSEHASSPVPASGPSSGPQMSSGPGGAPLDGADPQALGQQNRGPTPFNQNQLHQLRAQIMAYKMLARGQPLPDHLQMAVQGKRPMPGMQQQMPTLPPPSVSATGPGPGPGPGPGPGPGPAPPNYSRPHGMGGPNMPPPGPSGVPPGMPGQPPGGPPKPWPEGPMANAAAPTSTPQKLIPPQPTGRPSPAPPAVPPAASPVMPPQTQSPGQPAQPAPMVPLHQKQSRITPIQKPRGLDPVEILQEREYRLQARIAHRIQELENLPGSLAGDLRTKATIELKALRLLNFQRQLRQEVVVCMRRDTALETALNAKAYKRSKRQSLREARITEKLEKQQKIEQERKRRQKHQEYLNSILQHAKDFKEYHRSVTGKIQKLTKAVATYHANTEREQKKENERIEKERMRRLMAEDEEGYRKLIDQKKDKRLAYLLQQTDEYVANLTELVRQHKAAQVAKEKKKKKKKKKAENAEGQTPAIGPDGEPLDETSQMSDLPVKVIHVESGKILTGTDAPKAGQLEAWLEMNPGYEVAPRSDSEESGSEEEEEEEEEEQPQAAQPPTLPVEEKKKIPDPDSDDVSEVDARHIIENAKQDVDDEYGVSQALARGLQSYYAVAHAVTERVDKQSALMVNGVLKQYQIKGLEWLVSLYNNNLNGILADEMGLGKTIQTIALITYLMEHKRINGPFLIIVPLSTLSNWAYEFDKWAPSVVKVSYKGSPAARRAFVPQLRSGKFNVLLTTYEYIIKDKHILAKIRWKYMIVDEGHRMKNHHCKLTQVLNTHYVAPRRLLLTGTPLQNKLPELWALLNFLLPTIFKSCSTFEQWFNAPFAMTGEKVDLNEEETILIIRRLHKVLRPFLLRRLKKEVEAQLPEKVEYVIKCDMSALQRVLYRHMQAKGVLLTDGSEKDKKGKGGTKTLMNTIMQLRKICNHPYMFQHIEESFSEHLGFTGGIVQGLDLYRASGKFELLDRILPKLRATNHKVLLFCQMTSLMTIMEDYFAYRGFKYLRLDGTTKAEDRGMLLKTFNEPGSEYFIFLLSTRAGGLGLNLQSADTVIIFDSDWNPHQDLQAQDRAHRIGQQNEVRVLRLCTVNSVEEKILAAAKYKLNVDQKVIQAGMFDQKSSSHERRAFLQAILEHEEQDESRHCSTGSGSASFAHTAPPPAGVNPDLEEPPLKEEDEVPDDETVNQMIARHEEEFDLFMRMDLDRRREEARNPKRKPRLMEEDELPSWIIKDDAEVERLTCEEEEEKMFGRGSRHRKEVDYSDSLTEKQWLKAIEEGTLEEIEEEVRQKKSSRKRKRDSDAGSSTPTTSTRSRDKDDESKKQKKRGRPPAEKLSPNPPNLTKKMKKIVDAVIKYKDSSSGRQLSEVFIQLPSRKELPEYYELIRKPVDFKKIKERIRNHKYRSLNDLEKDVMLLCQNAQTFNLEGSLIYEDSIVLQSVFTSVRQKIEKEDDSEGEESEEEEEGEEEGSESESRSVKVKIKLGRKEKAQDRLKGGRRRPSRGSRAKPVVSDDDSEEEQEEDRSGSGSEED
T2 sequence (P51531 whole entry): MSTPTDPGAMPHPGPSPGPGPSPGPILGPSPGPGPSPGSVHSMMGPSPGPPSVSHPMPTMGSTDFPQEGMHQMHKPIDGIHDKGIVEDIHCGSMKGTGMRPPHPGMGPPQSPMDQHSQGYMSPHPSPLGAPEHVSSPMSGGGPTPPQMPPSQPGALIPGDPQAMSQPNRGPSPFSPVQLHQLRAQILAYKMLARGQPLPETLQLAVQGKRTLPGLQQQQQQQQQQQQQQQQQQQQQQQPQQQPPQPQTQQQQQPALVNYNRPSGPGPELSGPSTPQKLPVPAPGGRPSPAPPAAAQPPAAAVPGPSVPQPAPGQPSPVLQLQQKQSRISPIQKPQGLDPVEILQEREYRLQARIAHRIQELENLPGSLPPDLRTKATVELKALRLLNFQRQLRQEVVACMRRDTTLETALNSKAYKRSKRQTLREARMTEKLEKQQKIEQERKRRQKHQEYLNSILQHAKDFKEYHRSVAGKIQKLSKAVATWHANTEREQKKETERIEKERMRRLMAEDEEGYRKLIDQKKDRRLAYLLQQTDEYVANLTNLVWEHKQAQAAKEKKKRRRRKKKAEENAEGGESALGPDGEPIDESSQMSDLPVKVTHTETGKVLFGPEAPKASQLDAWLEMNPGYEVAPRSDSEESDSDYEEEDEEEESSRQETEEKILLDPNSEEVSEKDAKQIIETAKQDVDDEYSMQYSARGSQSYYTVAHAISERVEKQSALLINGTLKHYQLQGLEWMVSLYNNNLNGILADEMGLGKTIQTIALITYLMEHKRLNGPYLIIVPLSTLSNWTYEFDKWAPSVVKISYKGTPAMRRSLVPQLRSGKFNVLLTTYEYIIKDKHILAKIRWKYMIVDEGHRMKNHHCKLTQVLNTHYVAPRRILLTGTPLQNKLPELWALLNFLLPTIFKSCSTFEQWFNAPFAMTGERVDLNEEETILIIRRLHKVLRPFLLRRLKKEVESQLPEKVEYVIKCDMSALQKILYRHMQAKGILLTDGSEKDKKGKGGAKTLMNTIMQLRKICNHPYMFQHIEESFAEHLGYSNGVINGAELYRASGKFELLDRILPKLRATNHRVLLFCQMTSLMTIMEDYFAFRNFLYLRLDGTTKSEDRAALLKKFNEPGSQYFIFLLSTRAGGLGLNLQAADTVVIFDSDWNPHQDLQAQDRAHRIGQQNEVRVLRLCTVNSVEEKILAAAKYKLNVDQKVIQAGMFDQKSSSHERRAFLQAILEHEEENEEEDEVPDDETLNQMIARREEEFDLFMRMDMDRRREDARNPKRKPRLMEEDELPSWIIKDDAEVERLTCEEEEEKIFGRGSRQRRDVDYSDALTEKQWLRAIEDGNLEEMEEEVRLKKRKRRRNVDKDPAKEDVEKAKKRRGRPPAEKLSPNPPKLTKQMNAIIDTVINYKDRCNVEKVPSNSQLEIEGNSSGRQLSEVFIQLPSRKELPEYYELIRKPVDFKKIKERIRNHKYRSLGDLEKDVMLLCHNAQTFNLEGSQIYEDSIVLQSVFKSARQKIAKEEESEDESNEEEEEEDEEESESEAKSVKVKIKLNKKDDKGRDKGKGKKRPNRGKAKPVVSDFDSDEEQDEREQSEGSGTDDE

Row | SMILES | DC50 (HiBit-BRG1; [1]) | Dmax (HiBit-BRG1; [2]) | DC50 (HiBiT-BRM; [4]) | BRM HiBit Degradation Maximum (%) (HiBiT-BRM; [3]) | DC50 (HiBit-BRG1; read-out: BRG1 HiBit Degradation IC50; HeLa cells expressing HiBit-BRG1 and LgBit, 24 h) | DC50 (HiBiT-BRM; read-out: BRM HiBit Degradation IC50; HeLa cells expressing HiBiT-BRM, 24 h)
1 | Nc1nnc(-c2ccccc2O)cc1OCCc1ccc(CNC(=O)NCCCOc2cccc3c2C(=O)N(C2CCC(=O)NC2=O)C3=O)cc1 (centres unmarked) [Compound 8, 1-(4-(2-((3-amino-6-(2-hydroxyphenyl)pyridazin-4-yl)oxy)ethyl)benzyl)-3-(3-((2-(2,6-dioxopiperidin-3-yl)-1,3-dioxoisoindolin-4-yl)oxy)propyl)urea] |  |  |  | B (“B” indicates maximum degradation ≥50%) | > 1 µM | > 1 µM
2 | Nc1nnc(-c2ccccc2O)cc1OCCc1ccc(CNC(=O)CCCCNc2cccc3c2CN(C2CCC(=O)NC2=O)C3=O)cc1 (centres unmarked) [Compound 2, N-(4-(2-((3-amino-6-(2-hydroxyphenyl)pyridazin-4-yl)oxy)ethyl)benzyl)-5-((2-(2,6-dioxopiperidin-3-yl)-1-oxoisoindolin-4-yl)amino)pentanamide] | > 1 µM |  | > 1 µM | C (“C” indicates maximum degradation <50%) |  | 
3 | Nc1nnc(-c2ccccc2O)cc1N1CCN(CCNC(=O)CCCOc2cccc3c2C(=O)N(C2CCC(=O)NC2=O)C3=O)CC1 (centres unmarked) [Compound 84, N-(2-(4-(3-amino-6-(2-hydroxyphenyl)pyridazin-4-yl)piperazin-1-yl)ethyl)-4-((2-(2,6-dioxopiperidin-3-yl)-1,3-dioxoisoindolin-4-yl)oxy)butanamide] | > 1 µM | < 50% | > 1 µM | C (“C” indicates maximum degradation <50%) |  | 
4 | Nc1nnc(-c2ccccc2O)cc1OCCc1ccc(CNC(=O)CCCCOc2ccc3c(c2)CN(C2CCC(=O)NC2=O)C3=O)cc1 (centres unmarked) [Compound 129, N-(4-(2-((3-amino-6-(2-hydroxyphenyl)pyridazin-4-yl)oxy)ethyl)benzyl)-5-((2-(2,6-dioxopiperidin-3-yl)-1-oxoisoindolin-5-yl)oxy)pentanamide] | > 1 µM |  | > 1 µM | C (“C” indicates maximum degradation <50%) |  | 
5 | Nc1nnc(-c2ccccc2O)cc1OCCc1ccc(CNC(=O)CCNc2cccc3nnn(C4CCC(=O)NC4=O)c(=O)c23)cc1 (centres unmarked) [Compound 111, N-(4-(2-((3-amino-6-(2-hydroxyphenyl)pyridazin-4-yl)oxy)ethyl)benzyl)-3-((3-(2,6-dioxopiperidin-3-yl)-4-oxo-3,4-dihydrobenzo[d][1,2,3]triazin-5-yl)amino)propanamide] | > 1 µM | < 50% | > 1 µM | C (“C” indicates maximum degradation <50%) |  | 
6 | Cc1ncsc1-c1ccc([C@H](C)NC(=O)[C@@H]2C[C@@H](O)CN2C(=O)[C@@H](NC(=O)CCCCCCCCCC(=O)NCc2ccc(CCOc3cc(-c4ccccc4O)nnc3N)cc2)C(C)(C)C)cc1 [Compound 198, N1-(4-(2-((3-amino-6-(2-hydroxyphenyl)pyridazin-4-yl)oxy)ethyl)benzyl)-N11-((S)-1-((2S,4R)-4-hydroxy-2-(((S)-1-(4-(4-methylthiazol-5-yl)phenyl)ethyl)carbamoyl)pyrrolidin-1-yl)-3,3-dimethyl-1-oxobutan-2-yl)undecanediamide] | > 1 µM | < 50% | > 0.01 µM | A (“A” indicates maximum degradation ≥75%) |  | 
7 | Cc1ncsc1-c1ccc([C@H](C)NC(=O)[C@@H]2C[C@@H](O)CN2C(=O)[C@@H](c2cc(OCCN3CC4(C3)CN(CCC(=O)NCc3ccc(CCOc5cc(-c6ccccc6O)nnc5N)cc3)C4)no2)C(C)C)cc1 [Compound 192, (2S,4R)-1-[(2R)-2-[3-(2-[6-[2-([[4-(2-[[3-amino-6-(2-hydroxyphenyl)pyridazin-4-yl]oxy]ethyl)phenyl]methyl]carbamoyl)ethyl]-2,6-diazaspiro[3.3]heptan-2-yl]ethoxy)-1,2-oxazol-5-yl]-3-methylbutanoyl]-4-hydroxy-N-[(1S)-1-[4-(4-methyl-1,3-thiazol-5-yl)phenyl]ethyl]pyrrolidine-2-carboxamide] | > 1 µM | > 50% | > 0.1 µM | A (“A” indicates maximum degradation ≥75%) |  | 

The next lines start with results.

Row | DC50 (HiBit-BRG1; [1]) | Dmax (HiBit-BRG1; [2]) | DC50 (HiBiT-BRM; [4]) | SMILES | BRM HiBit Degradation Maximum (%) (HiBiT-BRM; [3]) | DC50 (HiBit-BRG1; read-out: BRG1 HiBit Degradation IC50; HeLa cells expressing HiBit-BRG1 and LgBit, 24 h) | DC50 (HiBiT-BRM; read-out: BRM HiBit Degradation IC50; HeLa cells expressing HiBiT-BRM, 24 h)
8 | > 1 µM | > 75% | > 0.1 µM | Cc1ncsc1-c1ccc([C@H](C)NC(=O)[C@@H]2C[C@@H](O)CN2C(=O)[C@@H](c2cc(OCCN3CCC(CC(=O)NCc4ccc(CCOc5cc(-c6ccccc6O)nnc5N)cc4)CC3)no2)C(C)C)cc1 [Compound 177, (2S,4R)-1-((R)-2-(3-(2-(4-(2-((4-(2-((3-amino-6-(2-hydroxyphenyl)pyridazin-4-yl)oxy)ethyl)benzyl)amino)-2-oxoethyl)piperidin-1-yl)ethoxy)isoxazol-5-yl)-3-methylbutanoyl)-4-hydroxy-N-((S)-1-(4-(4-methylthiazol-5-yl)phenyl)ethyl)pyrrolidine-2-carboxamide] | A (“A” indicates maximum degradation ≥75%) |  | 
9 | > 1 µM | < 50% | > 1 µM | Nc1nnc(-c2ccccc2O)cc1OCCc1ccc(CNC(=O)CCOCCOCCNc2ccc3c(c2)C(=O)N(C2CCC(=O)NC2=O)C3=O)cc1 (centres unmarked) [Compound 70, N-[[4-(2-[[3-amino-6-(2-hydroxyphenyl)pyridazin-4-yl]oxy]ethyl)phenyl]methyl]-3-[2-(2-[[2-(2,6-dioxopiperidin-3-yl)-1,3-dioxoisoindol-5-yl]amino]ethoxy)ethoxy]propanamide] | C (“C” indicates maximum degradation <50%) |  | 
10 | > 1 µM | < 50% | > 0.1 µM | Cc1ncsc1-c1ccc([C@H](C)NC(=O)[C@@H]2C[C@@H](O)CN2C(=O)[C@@H](c2cc(OCCNCCCCCCCCC(=O)NCc3ccc(CCOc4cc(-c5ccccc5O)nnc4N)cc3)no2)C(C)C)cc1 [Compound 239, (2S,4R)-1-((R)-2-(3-(2-((9-((4-(2-((3-amino-6-(2-hydroxyphenyl)pyridazin-4-yl)oxy)ethyl)benzyl)amino)-9-oxononyl)amino)ethoxy)isoxazol-5-yl)-3-methylbutanoyl)-4-hydroxy-N-((S)-1-(4-(4-methylthiazol-5-yl)phenyl)ethyl)pyrrolidine-2-carboxamide] | A (“A” indicates maximum degradation ≥75%) |  | 
11 | > 1 µM | < 50% | > 0.1 µM | CN(CCNC(=O)c1ccc(CCOc2cc(-c3ccccc3O)nnc2N)cc1)CCNc1cccc2c1C(=O)N(C1CCC(=O)NC1=O)C2=O (centres unmarked) [Compound 61, 4-(2-[[3-amino-6-(2-hydroxyphenyl)pyridazin-4-yl]oxy]ethyl)-N-[2-[(2-[[2-(2,6-dioxopiperidin-3-yl)-1,3-dioxoisoindol-4-yl]amino]ethyl)(methyl)amino]ethyl]benzamide] | B (“B” indicates maximum degradation ≥50%) |  | 
12 | > 1 µM | < 50% | > 1 µM | Cc1ncsc1-c1ccc(CNC(=O)[C@@H]2C[C@@H](O)CN2C(=O)[C@@H](NC(=O)CN2CCC(OC3CCN(CCC(=O)NCc4ccc(CCOc5cc(-c6ccccc6O)nnc5N)cc4)CC3)CC2)C(C)(C)C)cc1 [Compound 244, (2S,4R)-1-((S)-2-(2-(4-((1-(3-((4-(2-((3-amino-6-(2-hydroxyphenyl)pyridazin-4-yl)oxy)ethyl)benzyl)amino)-3-oxopropyl)piperidin-4-yl)oxy)piperidin-1-yl)acetamido)-3,3-dimethylbutanoyl)-4-hydroxy-N-(4-(4-methylthiazol-5-yl)benzyl)pyrrolidine-2-carboxamide] | A (“A” indicates maximum degradation ≥75%) |  | 
13 | > 1 µM | < 50% | > 1 µM | Nc1nnc(-c2ccccc2O)cc1OCCc1ccc(C(=O)NCCCCCCCC(=O)NCc2ccc(S(=O)(=O)Nc3cccc4c(Cl)c[nH]c34)cc2)cc1 [Compound 25, 8-[[4-(2-[[3-amino-6-(2-hydroxyphenyl)pyridazin-4-yl]oxy]ethyl)phenyl]formamido]-N-([4-[(3-chloro-1H-indol-7-yl)sulfamoyl]phenyl]methyl)octanamide] | C (“C” indicates maximum degradation <50%) |  | 
14 | > 1 µM | < 50% | > 1 µM | Cc1ncsc1-c1ccc(CNC(=O)[C@@H]2C[C@@H](O)CN2C(=O)[C@@H](NC(=O)COCCNC(=O)c2ccc(CCOc3cc(-c4ccccc4O)nnc3N)cc2)C(C)(C)C)cc1 [Compound 163, (2S,4R)-1-((S)-2-(2-(2-(4-(2-((3-amino-6-(2-hydroxyphenyl)pyridazin-4-yl)oxy)ethyl)benzamido)ethoxy)acetamido)-3,3-dimethylbutanoyl)-4-hydroxy-N-(4-(4-methylthiazol-5-yl)benzyl)pyrrolidine-2-carboxamide] | B (“B” indicates maximum degradation ≥50%) |  | 

Source: patent publication US20230150974A1 (Foghorn Therapeutics Inc., priority 2020, published 2023)
